# Laboratory results from patent US7989451B2, “Tricyclic 1,2,4-triazine oxides and compositions for therapeutic use in cancer treatments” (Auckland Uniservices Limited, priority 2005, dated 2011).
row,melting point,Structure (SMILES)
1,96 to 99 °C,"[O-][n+]1nc(CCCN2CCOCC2)nc2cc3c(cc21)CCO3 [Compound 215, 3-[3-(4-Morpholinyl)propyl]-7,8-dihydrofuro[2,3-g][1,2,4]benzotriazine 1-Oxide]"
2,192 to 194 °C,"CN(C)CCNc1nc2cc3c(cc2[n+]([O-])n1)OCO3 [Compound 223, N^1,N^1-Dimethyl-N^2-(1-oxido[1,3]dioxolo[4,5-g][1,2,4]benzotriazin-3-yl)-1,2-ethanediamine]"
3,275 to 279 °C (dec.),"Nc1nc2ccc3c(c2[n+]([O-])n1)CCCO3 [Compound 234, 9,10-Dihydro-8H-chromeno[6,5-e][1,2,4]triazin-3-amine 1-Oxide]"
4,119 to 120 °C,"CN(C)CCNc1nc2ccc3c(c2[n+]([O-])n1)CCCO3 [Compound 236, N^1,N^1-Dimethyl-N^2-(1-oxido-9,10-dihydro-8H-chromeno[6,5-e][1,2,4]triazin-3-yl)-1,2-ethanediamine]"
5,280 to 283 °C,"Nc1nc2cc3c(cc2[n+]([O-])n1)OCCC3 [Compound 239, 7,8-Dihydro-6H-chromeno[6,7-e][1,2,4]triazin-3-amine 1-Oxide]"
6,150 to 152 °C,"CN(C)CCNc1nc2cc3c(cc2[n+]([O-])n1)OCCC3 [Compound 241, N^1,N^1-Dimethyl-N^2-(1-oxido-7,8-dihydro-6H-chromeno[6,7-e][1,2,4]triazin-3-yl)-1,2-ethanediamine]"
7,151 to 152 °C,"[O-][n+]1nc(NCCCN2CCOCC2)nc2cc3c(cc21)OCCC3 [Compound 243, N-[3-(4-Morpholinyl)propyl]-7,8-dihydro-6H-chromeno[6,7-e][1,2,4]triazin-3-amine 1-Oxide]"
8,218 °C,"CCN1Cc2cc3nc(N)n[n+]([O-])c3cc2C1 [Compound 249, 7-Ethyl-7,8-dihydro-6H-[1,2,4]triazino[5,6-f]isoindol-3-amine 1-Oxide]"
9,170 to 175 °C,"CN1CCc2cc3c(cc2C1)nc(N)n[n+]3[O-] [Compound 256, 7-Methyl-6,7,8,9-tetrahydro[1,2,4]triazino[6,5-g]isoquinolin-3-amine 1-Oxide]"
10,179 °C (dec.),"CN1CCc2cc3c(cc2C1)nc(Cl)n[n+]3[O-] [Compound 257, 3-Chloro-7-methyl-6,7,8,9-tetrahydro[1,2,4]triazino[6,5-g]isoquinoline 1-Oxide]"
11,193 to 196 °C,"CCNc1nc2cc3c(cc2[n+]([O-])n1)CCN(C)C3 [Compound 258, N-Ethyl-7-methyl-6,7,8,9-tetrahydro[1,2,4]triazino[6,5-g]isoquinolin-3-amine 1-Oxide]"
12,129 to 131 °C,"CCc1nc2cc3c(cc2[n+]([O-])n1)CCN(C)C3 [Compound 260, 3-Ethyl-7-methyl-6,7,8,9-tetrahydro[1,2,4]triazino[6,5-g]isoquinoline 1-Oxide]"
13,226 to 229 °C,"CN1CCc2ccc3nc(N)n[n+]([O-])c3c2C1 [Compound 262, 9-Methyl-7,8,9,10-tetrahydro[1,2,4]triazino[5,6-h]isoquinolin-3-amine 1-Oxide]"
14,200 to 205 °C,"CN1CCc2ccc3nc(Cl)n[n+]([O-])c3c2C1 [Compound 263, 3-Chloro-9-methyl-7,8,9,10-tetrahydro[1,2,4]triazino[5,6-h]isoquinoline 1 Oxide]"
15,99 to 102 °C,"CCc1nc2ccc3c(c2[n+]([O-])n1)CN(C)CC3 [Compound 264, 3-Ethyl-9-methyl-7,8,9,10-tetrahydro[1,2,4]triazino[5,6-h]isoquinoline 1 Oxide]"
16,117 to 121 °C,"CCc1n[n+]([O-])c2c3c(ccc2[n+]1[O-])CCN(C)C3 [Compound 265, 3-Ethyl-9-methyl-7,8,9,10-tetrahydro[1,2,4]triazino[5,6-h]isoquinoline 1,4-Dioxide]"

# The next lines start with the compound.
row,Structure (SMILES),melting point
1,"CCNc1n[n+]([O-])c2cc3c(cc2[n+]1[O-])CC(CO)C3 (centres unmarked) [Compound 127, [3-(Ethylamino)-1,4-dioxido-7,8-dihydro-6H-indeno[5,6-e][1,2,4]triazin-7-yl]methanol]",153 to 155 °C
2,"CCc1nc2cc3c(cc2[n+]([O-])n1)CC(CO)C3 (centres unmarked) [Compound 142, (3-Ethyl-1-oxido-7,8-dihydro-6H-indeno[5,6-e][1,2,4]triazin-7-yl)methanol]",122 to 123 °C
3,"CCc1nc2cc3c(cc2[n+]([O-])n1)CC(CN1CCOCC1)C3 (centres unmarked) [Compound 143, 3-Ethyl-7-(4-morpholinylmethyl)-7,8-dihydro-6H-indeno[5,6-e][1,2,4]triazine 1-Oxide]",111 to 112 °C
4,"Nc1nc2cc3c(cc2[n+]([O-])n1)CC(CCO)C3 (centres unmarked) [Compound 157, 2-(3-Amino-1-oxido-7,8-dihydro-6H-indeno[5,6-e][1,2,4]triazin-7-yl)ethanol]",230 to 235 °C
5,"[O-][n+]1nc(I)nc2cc3c(cc21)CC(CCO)C3 (centres unmarked) [Compound 158, 2-(3-Iodo-1-oxido-7,8-dihydro-6H-indeno[5,6-e][1,2,4]triazin-7-yl)ethanol]",96 to 99 °C
6,"[O-][n+]1nc(I)nc2cc3c(cc21)CC(CCOC1CCCCO1)C3 (centres unmarked) [Compound 159, 3-Iodo-7-(2-(tetrahydro-2H-pyran-2-yloxy)ethyl)-7,8-dihydro-6H-indeno[5,6-e][1,2,4]triazine 1-Oxide]",80 to 82 °C
7,"CCc1nc2cc3c(cc2[n+]([O-])n1)CC(CCO)C3 (centres unmarked) [Compound 161, 2-(3-Ethyl-1-oxido-7,8-dihydro-6H-indeno[5,6-e][1,2,4]triazin-7-yl)ethanol]",96 to 99 °C
8,"Nc1nc2ccc3c(c2[n+]([O-])n1)CCCC3 [Compound 170, 7,8,9,10-Tetrahydronaphtho[2,1-e][1,2,4]triazin-3-amine 1-Oxide]",271 °C (dec.)
9,"CN(C)CCNc1nc2ccc3c(c2[n+]([O-])n1)CCCC3 [Compound 172, N^1,N^1-Dimethyl-N^2-(1-oxido-7,8,9,10-tetrahydronaphtho[2,1-e][1,2,4]triazin-3-yl)-1,2-ethanediamine]",151 to 153 °C
10,"Nc1nc2cc3c(cc2[n+]([O-])n1)CCCC3 [Compound 175, 6,7,8,9-Tetrahydronaphtho[2,3-e][1,2,4]triazin-3-amine 1-Oxide]",270 to 274 °C
11,"CN(C)CCNc1nc2cc3c(cc2[n+]([O-])n1)CCCC3 [Compound 177, N^1-(1-Oxido-6,7,8,9-tetrahydronaphtho[2,3-e][1,2,4]triazin-3-yl)-N^2,N^2-dimethyl-1,2-ethanediamine]",149 to 151 °C
12,"CN(C)CCNc1n[n+]([O-])c2cc3c(cc2[n+]1[O-])CCCC3 [Compound 178, N^1-(1,4-Dioxido-6,7,8,9-tetrahydronaphtho[2,3-e][1,2,4]triazin-3-yl)-N^2,N^2-dimethyl-1,2-ethanediamine]",148 to 151 °C
13,"[O-][n+]1nc(NCCCN2CCOCC2)nc2cc3c(cc21)CCCC3 [Compound 179, N-[3-(4-Morpholinyl)propyl]-6,7,8,9-tetrahydronaphtho[2,3-e][1,2,4]triazin-3-amine 1-Oxide]",115 to 116 °C
14,"Nc1nc2cc3c(cc2[n+]([O-])n1)CCCCC3 [Compound 186, 7,8,9,10-Tetrahydro-6H-cyclohepta[g][1,2,4]benzotriazin-3-amine 1-Oxide]",261 to 265 °C
15,"CN(C)CCNc1nc2cc3c(cc2[n+]([O-])n1)CCCCC3 [Compound 188, N^1,N^1-Dimethyl-N^2-(1-oxido-7,8,9,10-tetrahydro-6H-cyclohepta[g][1,2,4]benzotriazin-3-yl)-1,2-ethanediamine]",149 to 152 °C
16,"Nc1nc2cc3c(cc2[n+]([O-])n1)OCC3 [Compound 195, 6,7-Dihydrofuro[3,2-g][1,2,4]benzotriazin-3-amine 1-Oxide]",241 to 246 °C
17,"CN(C)CCNc1nc2cc3c(cc2[n+]([O-])n1)OCC3 [Compound 197, N^1,N^1-Dimethyl-N^2-(1-oxido-6,7-dihydrofuro[3,2-g][1,2,4]benzotriazin-3-yl)-1,2-ethanediamine]",153 to 157 °C
18,"[O-][n+]1nc(NCCCN2CCOCC2)nc2cc3c(cc21)OCC3 [Compound 199, N-[3-(4-Morpholinyl)propyl]-6,7-dihydrofuro[3,2-g][1,2,4]benzotriazin-3-amine 1-Oxide]",142 to 144 °C
19,"Nc1nc2cc3c(cc2[n+]([O-])n1)CCO3 [Compound 204, 7,8-Dihydrofuro[2,3-g][1,2,4]benzotriazin-3-amine 1-Oxide]",293 to 296 °C
20,"[O-][n+]1nc(Cl)nc2cc3c(cc21)CCO3 [Compound 206, 3-Chloro-7,8-dihydrofuro[2,3-g][1,2,4]benzotriazine 1-Oxide]",203 to 205 °C
21,"CN(C)CCNc1nc2cc3c(cc2[n+]([O-])n1)CCO3 [Compound 207, N^1,N^1-Dimethyl-N^2-(1-oxido-7,8-dihydrofuro[2,3-g][1,2,4]benzotriazin-3-yl)-1,2-ethanediamine]",163 to 165 °C
22,"CCN(CC)CCNc1nc2cc3c(cc2[n+]([O-])n1)CCO3 [Compound 209, N^1,N^1-Diethyl-N^2-(1-oxido-7,8-dihydrofuro[2,3-g][1,2,4]benzotriazin-3-yl)-1,2-ethanediamine]",150 to 151 °C
23,"[O-][n+]1nc(NCCCN2CCOCC2)nc2cc3c(cc21)CCO3 [Compound 211, N-[3-(4-Morpholinyl)propyl]-7,8-dihydrofuro[2,3-g][1,2,4]benzotriazin-3-amine 1-Oxide]",152 to 154 °C
24,"[O-][n+]1nc(I)nc2cc3c(cc21)CCO3 [Compound 213, 3-Iodo-7,8-dihydrobenzofuro[6,5-e][1,2,4]triazine 1-Oxide]",192 to 194 °C
25,"O=CCCc1nc2cc3c(cc2[n+]([O-])n1)CCO3 [Compound 214, 3-(1-Oxido-7,8-dihydrofuro[2,3-g][1,2,4]benzotriazin-3-yl)propanal]",140 to 142 °C
